Reference: patent US20210147343A1 (priority 2018, published 2021)
Like-named read-outs stand apart in the source and are kept apart here.

How the values were obtained:
mu opioid receptor (MOR) [1] = molecular target: T1, mu opioid receptor (MOR) (Homo sapiens, UniProt P35372); assay: MOR cAMP antagonist assay; format: cell-based; set-up: host or cells: CHO-K1
Excerpt: MOR cAMP Antagonist Assay

mu opioid receptor (MOR) [2] = molecular target: T1, mu opioid receptor (MOR); assay: MOR GTPγS agonist assay; format: biochemical; set-up: host or cells: CHO-K1; conditions: membranes of CHO cells over-expressing MOR; SPA beads; read-out: MOR GTPγS EC50
Excerpt: Membranes obtained from the stable cell lines over-expressing MOR were subjected to GTPγS assay using SPA beads (Perkin Elmer, Cat #RPNQ0001).

mu opioid receptor (MOR) [3] = molecular target: T1, mu opioid receptor (MOR); assay: MOR cAMP agonist assay
[4] = molecular target: T2, kappa opioid receptor (KOR) (Homo sapiens, UniProt P41145); assay: cell-based; conditions: after activation with dynorphin B
T2 construct: host or cells: CHO-K1
T2 sequence (P41145 whole entry): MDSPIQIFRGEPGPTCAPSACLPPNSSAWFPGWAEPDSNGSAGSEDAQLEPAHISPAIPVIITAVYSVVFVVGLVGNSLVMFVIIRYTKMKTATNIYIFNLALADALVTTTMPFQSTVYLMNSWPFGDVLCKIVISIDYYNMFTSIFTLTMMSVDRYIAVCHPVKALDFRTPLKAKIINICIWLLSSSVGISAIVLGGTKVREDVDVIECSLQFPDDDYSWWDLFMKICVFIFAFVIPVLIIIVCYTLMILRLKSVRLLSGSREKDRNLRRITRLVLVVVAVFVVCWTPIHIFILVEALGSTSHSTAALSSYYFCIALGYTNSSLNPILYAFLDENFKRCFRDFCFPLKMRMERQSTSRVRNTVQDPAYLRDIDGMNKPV
Excerpt: KOR cAMP Antagonist Assay

[5] = kOR cAMP IC50, CHO-K1 cells expressing kOR
[6] = CHO-K1 cells expressing kOR, read-out: kOR cAMP IC50

T1 sequence (P35372 whole entry): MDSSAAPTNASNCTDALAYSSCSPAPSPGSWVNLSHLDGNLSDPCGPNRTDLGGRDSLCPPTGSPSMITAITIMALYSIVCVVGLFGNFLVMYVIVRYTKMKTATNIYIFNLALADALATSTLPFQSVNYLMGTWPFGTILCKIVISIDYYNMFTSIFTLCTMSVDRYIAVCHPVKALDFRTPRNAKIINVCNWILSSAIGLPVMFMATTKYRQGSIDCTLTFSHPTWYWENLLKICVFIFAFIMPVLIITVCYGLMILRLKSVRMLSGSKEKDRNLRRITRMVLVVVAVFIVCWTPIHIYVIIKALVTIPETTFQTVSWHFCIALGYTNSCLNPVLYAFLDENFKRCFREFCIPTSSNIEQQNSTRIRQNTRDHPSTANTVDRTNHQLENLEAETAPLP

Structure (SMILES) | IC50 (mu opioid receptor (MOR) [1]) [nM] | EC50 (mu opioid receptor (MOR) [2]) [nM] | EC50 (mu opioid receptor (MOR) [3]) [nM] | IC50 [4, 5] [nM] | other results
Cc1cc(O)cc(C)c1C[C@@H](CNC(=O)c1cc2ccccc2cn1)N(C)C [Compound C-35] | < 100 | < 100 |  |  | 
Cc1cc(O)cc(C)c1C[C@@H](CNC(=O)c1cc(Cl)c(Cl)cc1F)N(C)C [Compound C-57, (S)-4,5-dichloro-N-(2-(dimethylamino)-3-(4-hydroxy-2,6-dimethylphenyl)propyl)-2-fluorobenzamide] | < 100 | < 100 |  |  | 
Cc1ccc(C(=O)NC[C@H](Cc2c(C)cc(O)cc2C)N(C)C)cc1C [Compound C-28] | < 100 | < 100 |  |  | 
CC(CC(=O)NC[C@H](Cc1ccc2c(c1)CC(=O)N2)N(C)C)c1ccccc1 (stereo in doubt) [Compound A-23, (S)—N—((S)-2-(dimethylamino)-3-(2-oxoindolin-5-yl)propyl)-3-phenylbutanamide] |  | < 100 |  |  | IC50 (mu opioid receptor (MOR) [1]; read-out: MOR cAMP IC50, CHO-K1 cells expressing mOR, after activation with DAMGO at the EC80): < 100 nM
CC(=O)Oc1cc(C)c(C[C@@H](CNC(=O)c2ccc(Cl)c(Cl)c2)N(C)C)c(C)c1 [Compound C-56, (S)-4-(3-(3,4-dichlorobenzamido)-2-(dimethylamino)propyl)-3,5-dimethylphenyl acetate] | < 100 |  |  |  | 
CN(C)[C@H](CNC(=O)c1ccc(Cl)c(Cl)c1)Cc1ccc(O)c(Cl)c1 [Compound C-61, (S)-3,4-dichloro-N-(3-(3-chloro-4-hydroxyphenyl)-2-(dimethylamino)propyl)benzamide] | < 100 | < 100 |  |  | 
CNC(=O)c1ccc(C[C@@H](CNC(=O)c2ccc(Cl)c(Cl)c2)N(C)C)cc1F [Compound C-39] | < 100 | < 100 |  |  | 
CN(C)[C@H](CNC(=O)c1cc(F)c(Cl)c(F)c1)Cc1ccc(O)cc1Cl [Compound C-1] | < 100 |  |  |  | 
O=C(NC[C@H](Cc1ccc2[nH]ncc2c1)N1CCCC1)c1ccc(Cl)c(Cl)c1 [Compound C-59, (S)—N-(3-(1H-indazol-5-yl)-2-(pyrrolidin-1-yl)propyl)-3,4-dichlorobenzamide] | < 100 | 100 to 1000 |  |  | 
Cc1cc(O)cc(C)c1C[C@@H](CNC(=O)c1ccc2ccccc2c1)N(C)C [Compound C-33] | < 100 | < 100 |  |  | 
CN(C)[C@H](CNC(=O)c1ccc(Br)c(Cl)c1)Cc1ccc(O)cc1Cl [Compound C-8, (S)-4-bromo-3-chloro-N-(3-(2-chloro-4-hydroxyphenyl)-2-(dimethylamino)propyl)benzamide] | < 100 |  |  |  | 
Cc1cc(O)cc(C)c1C[C@@H](CNC(=O)c1ccc(C(F)(F)F)c(F)c1)N(C)C [Compound C-30] | < 100 | < 100 |  |  | 
Cc1cc(O)cc(C)c1C[C@@H](CNC(=O)c1ccc(C(F)(F)F)cc1)N(C)C [Compound C-32, (S)—N-(2-(dimethylamino)-3-(4-hydroxy-2,6-dimethylphenyl)propyl)-4-(trifluoromethyl)benzamide] | 100 to 1000 | < 100 |  |  | 
Cc1cc(C[C@@H](CNC(=O)[C@@H]2C[C@]2(C)c2ccccc2)N(C)CC2CC2)ccc1O [Compound B-40, (1R,2S)—N—((S)-2-((cyclopropylmethyl)(methyl)amino)-3-(4-hydroxy-3-methylphenyl)propyl)-2-methyl-2-phenylcyclopropane-1-carboxamide] |  |  | < 100 | > 1000 | 
C[C@H](CC(=O)NC[C@H](Cc1ccc2c(c1)CC(=O)N2)N(C)C)c1ccccc1 [Compound A-22, (R)—N—((S)-2-(dimethylamino)-3-(2-oxoindolin-5-yl)propyl)-3-phenylbutanamide] | < 100 | < 100 |  |  | 
Cc1ccc(C(=O)NC[C@H](Cc2ccc(O)cc2Cl)N(C)C)cc1C [Compound C-2, (S)—N-(3-(2-Chloro-4-hydroxyphenyl)-2-(dimethylamino)propyl)-3,4-dimethylbenzenamide] | < 100 |  |  |  | 
C[C@H](OC(=O)NC[C@@H](N)Cc1ccc(C(N)=O)cc1)c1ccccc1 [Compound A-2, (S)-1-phenylethyl ((S)-2-amino-3-(4-carbamoylphenyl)propyl)carbamate] |  |  | > 1000 |  | IC50 [4, 6]: > 1000 nM
C[C@H](OC(=O)NC[C@H](Cc1ccc(C(N)=O)cc1)N(C)C)c1ccccc1 [Compound A-3, (S)-1-phenylethyl ((S)-3-(4-carbamoylphenyl)-2-(dimethylamino)propyl) carbamate] |  |  | < 100 | > 1000 | 
CNC(=O)c1ccc(C[C@@H](CNC(=O)[C@@H]2C[C@@]2(C)c2ccccc2)N(C)C)cc1F [Compound B-2, 4-((S)-2-(dimethylamino)-3-((1R,2R)-2-methyl-2-phenylcyclopropane-1-carboxamido)propyl)-2-fluoro-N-methylbenzamide] |  |  | < 100 | > 1000 | 

Structure (SMILES) | IC50 (mu opioid receptor (MOR) [1]) [nM] | EC50 (mu opioid receptor (MOR) [2]) [nM] | EC50 (mu opioid receptor (MOR) [3]) [nM] | IC50 [4, 5] [nM] | other results
CN1Cc2cc(O)ccc2C[C@H]1CNC(=O)c1ccc(Cl)c(Cl)c1 [Compound C-54] | < 100 | < 100 |  |  | 
CN(C)[C@H](CNC(=O)[C@@H]1C[C@]1(C)c1ccccc1)Cc1ccc(C(=O)NC2CC2)c(F)c1 [Compound B-39, N-cyclopropyl-4-((S)-2-(dimethylamino)-3-((1R,2S)-2-methyl-2-phenylcyclopropane-1-carboxamido)propyl)-2-fluorobenzamide] |  |  | < 100 | > 1000 | 
CN(C)[C@H](CNC(=O)N[C@H](c1ccccc1)C1CC1)Cc1ccc(C(N)=O)cc1 [Compound A-4, 4-((S)-3-(3-((S)-cyclopropyl(phenyl)methyl)ureido)-2-(dimethylamino)propyl)benzamide] |  |  | < 100 | < 100 | 
CN(C)[C@H](CNC(=O)[C@@H]1C[C@]1(C)c1ccccc1)Cc1ccc(O)cc1 [Compound B-12, (1R,2S)—N—((S)-2-(dimethylamino)-3-(4-hydroxyphenyl)propyl)-2-methyl-2-phenylcyclopropane-1-carboxamide] |  |  | > 1000 | < 100 | 
CN(C)[C@H](CNC(=O)[C@H]1CCCN1c1ccccc1)Cc1ccc(C(N)=O)cc1 [Compound B-9, (R)—N—((S)-3-(4-carbamoylphenyl)-2-(dimethylamino)propyl)-1-phenylpyrrolidine-2-carboxamide] |  |  | 100 to 1000 | > 1000 | 
CN(C)[C@H](CNC(=O)c1ccc(Cl)c(Cl)c1)Cc1ccc(O)cc1Cl [Compound C-7, (S)-3,4-Dichloro-N-(3-(2-chloro-4-hydroxyphenyl)-2-(dimethylamino)propyl)benzamide] | < 100 |  |  |  | 
CN(C)[C@H](CNC(=O)[C@@H]1C[C@@]1(C)c1ccccc1)Cc1ccc(C(N)=O)cc1Cl [Compound B-60, 3-chloro-4-((S)-2-(dimethylamino)-3-((1R,2R)-2-methyl-2-phenylcyclopropane-1-carboxamido)propyl)benzamide] |  |  |  | < 100 | EC50 (mu opioid receptor (MOR) [3]; read-out: mOR cAMP EC50, CHO-K1 cells stably expressing mOR, cAMP levels): < 100 nM
Cc1cc(O)cc(C)c1C[C@@H](CNC(=O)c1ccc(C(F)(F)F)c(Cl)c1)N(C)C [Compound C-26] | < 100 | < 100 |  |  | 
Cc1cc(O)cc(C)c1C[C@@H](CNC(=O)[C@@H]1C[C@@]1(C)c1ccccc1)N(C)C [Compound B-13, (1R,2R)—N—((S)-2-(dimethylamino)-3-(4-hydroxy-2,6-dimethylphenyl)propyl)-2-methyl-2-phenylcyclopropane-1-carboxamide] |  |  | < 100 | < 100 | 
CN(C)[C@H](CNC(=O)[C@@H]1C[C@H]1c1ccccc1)Cc1ccc(O)cc1 [Compound B-17, (1R,2R)—N—((S)-2-(dimethylamino)-3-(4-hydroxyphenyl)propyl)-2-phenylcyclopropane-1-carboxamide] |  |  | < 100 | 100 to 1000 | 
CCN(CC)[C@H](CNC(=O)c1ccc(Cl)c(Cl)c1)Cc1ccc2[nH]ncc2c1 [Compound C-64] | < 100 | < 100 |  |  | 
Cc1cc(O)cc(C)c1C[C@@H](CNC(=O)c1ccc2occc2c1)N(C)C [Compound C-31] | < 100 | < 100 |  |  | 
CNC(=O)c1ccc(C[C@@H](CNC(=O)[C@@H]2C[C@]2(C)c2ccccc2)N(C)C)cc1F [Compound B-46, 4-((S)-2-(dimethylamino)-3-((1R,2S)-2-methyl-2-phenylcyclopropane-1-carboxamido)propyl)-2-fluoro-N-methylbenzamide] |  |  | < 100 | > 1000 | 
Cc1cc(O)cc(C)c1C[C@@H](CNC(=O)c1ccc(Cl)c(C(F)(F)F)c1)N(C)C [Compound C-27] | < 100 | < 100 |  |  | 
CN(C)[C@H](CNC(=O)[C@H]1C[C@@]1(C)c1ccccc1)Cc1ccc(O)cc1 [Compound B-11, (1S,2R)—N—((S)-2-(dimethylamino)-3-(4-hydroxyphenyl)propyl)-2-methyl-2-phenylcyclopropane-1-carboxamide] |  |  | 100 to 1000 | > 1000 | 
O=C(NC[C@@H]1Cc2ccc(O)cc2CN1)c1ccc(Cl)c(Cl)c1 [Compound C-60, (S)-3,4-dichloro-N-((7-hydroxy-1,2,3,4-tetrahydroisoquinolin-3-yl)methyl)benzamide] | < 100 | < 100 |  |  | 
Cc1cc(O)cc(C)c1C[C@@H](CNC(=O)c1nccc2ccccc12)N(C)C [Compound C-34] | < 100 | < 100 |  |  | 
C[C@@]1(c2ccccc2)C[C@H]1C(=O)NC[C@@H]1Cc2ccc(O)cc2N1 [Compound B-16, (1R,2R)—N—(((S)-6-hydroxyindolin-2-yl)methyl)-2-methyl-2-phenylcyclopropane-1-carboxamide] |  |  | > 1000 |  | IC50 [4, 6]: > 1000 nM
